{
  "source": "patent US6407125B1",
  "about": "“Pharmacological agent and method of treatment” (Novactyl, Inc., priority 1995, dated 2002)",
  "key": {"MDA-468 cells": {"test_system": "MDA-468 cells", "type": "cell-based, human", "description": "As in the case of WI-38, MDA-468 cell viability after fusaric acid treatment was investigated in logarithmically growing and confluent cells. In logarithmically growing MDA-468 cells, less than 20% of the attached cells were viable after 30 hours of treatment with fusaric acid. When the cells were treated for 48 hours, only 0.1% of the cell population survived the pronounced cytotoxic actions of fusaric acid. […] Thus, MDA-468 cells are extremely sensitive to the cytotoxic actions of fusaric acid in both growing and confluent population of cells in comparison to normal WI-38 lines studied."}, "[1]": {"test_system": "human breast adenocarcinoma MDA-468 cell", "assay": "Growth of MDA-468 cells (cell number, DNA synthesis)", "type": "cell-based", "conditions": "MDA-468, 500 μM fusaric acid", "description": "After 12-24 hours of treatment with 500 μM fusaric acid, there was no further increase in cell number. […] These floating cells were not viable. Within 30 hours of treatment there was a 65% decrease in cell number. […] After 96 hours, less than 10% of the original population remained attached to the dish and no change in cell number was noted after one additional week."}, "LoVo cells [2]": {"test_system": "LoVo cells", "assay": "Viability of LoVo cells (trypan blue exclusion)", "type": "cell-based, human", "conditions": "500 μM fusaric acid", "description": "As in the case of WI-38, LoVo cell viability after fusaric acid treatment was investigated in logarithmically growing and confluent cells, as shown in Tables 2 and 3. In logarithmically growing LoVo cells, approximately 38% of the attached cells were viable after 30 hours of treatment with fusaric acid. When the cells were treated for 78 hours, only 4.5% of the cell population survived the pronounced cytotoxic actions of fusaric acid. […] Thus, LoVo cells are much more sensitive to the cytotoxic actions of fusaric acid in both growing and confluent population of cells in comparison to normal WI-38 cells."}, "KB cells [3]": {"test_system": "KB cells", "assay": "Viability of KB cells (trypan blue exclusion)", "type": "cell-based, human", "conditions": "500 μM fusaric acid", "description": "To examine KB cell viability in greater detail, the effects of fusaric acid were studied in logarithmically growing and confluent cells. In logarithmically growing KB cells 70% of the cells were viable after 48 hours in 500 μtM fusaric acid. […] Thus, in contrast to LoVo cells, a significant proportion of the population of growing (70%) cells and virtually all (95%) of confluent KB cells resisted the pronounced cytotoxic action of fusaric acid (See Tables 3 and 4, above)."}, "colon carcinoma": {"test_system": "colon carcinoma", "assay": "Viability of other human carcinoma cell types", "type": "cell-based", "conditions": "48 hours of treatment", "description": "(§1) As in previous examples, the following human cell lines were inhibited by similar concentrations of fusaric acid: Prostatic adenocarcinoma, skin carcinoma, colon carcinoma, liver adenocarcinoma and lung adenocarcinoma. For all these cell types, cell viability decreased by approximately 60% after 48 hours of treatment with fusaric acid."}, "Prostatic adenocarcinoma": {"test_system": "Prostatic adenocarcinoma", "assay": "Viability of other human carcinoma cell types", "type": "cell-based", "conditions": "48 hours of treatment", "description": "as §1"}, "skin carcinoma": {"test_system": "skin carcinoma", "assay": "Viability of other human carcinoma cell types", "type": "cell-based", "conditions": "48 hours of treatment", "description": "as §1"}, "lung adenocarcinoma": {"test_system": "lung adenocarcinoma", "assay": "Viability of other human carcinoma cell types", "type": "cell-based", "conditions": "48 hours of treatment", "description": "as §1"}, "liver adenocarcinoma": {"test_system": "liver adenocarcinoma", "assay": "Viability of other human carcinoma cell types", "type": "cell-based", "conditions": "48 hours of treatment", "description": "as §1"}, "WI-38 cells [4]": {"test_system": "WI-38 cells", "assay": "Viability of WI-38 cells (trypan blue exclusion)", "type": "cell-based", "conditions": "500 μM fusaric acid", "description": "To examine WI-38 cell viability in greater detail, the effects of fusaric acid were studied in logarithmically growing and contact inhibited confluent cells (Tables 2 and 3). In logarithmically growing WI-38 cells approximately 76% of the cells were viable after 30 hours of treatment with fusaric acid. When the cells were treated for 78 hours, only 26% of the cell population survived the pronounced cytotoxic actions of fusaric acid."}, "KB cells [5]": {"test_system": "KB cells", "assay": "Growth of KB cells", "type": "cell-based, human", "conditions": "48 hours in 500 μM"}, "WI-38 cells [6]": {"test_system": "WI-38 cells", "assay": "Growth of WI-38 cells (total cell protein, cell number)", "type": "cell-based", "conditions": "for Monolayer Protein: WI-38, fusaric acid 0.5 mM", "description": "(§2) Cells were plated at 1.5×10^5 cells/60-mm dish; 48 hours later, the medium was removed, and new media with or without 3 mM picolinic acid was added. Total cell protein was determined at the indicated times; each point is the average of triplicate measurements from 2 cultures.\n(§3) In initial experiments to examine the effects of fusaric acid on cell growth and viability, WI-38 and LoVo cells were incubated for 24 to 72 hours in medium with or without various doses of fusaric acid (0.1-1 mM). The growth of both WI-38 and LoVo cells was inhibited by 500 μM fusaric acid in a time and dose dependent manner, as shown below in Table 2."}, "LoVo cells [7]": {"test_system": "LoVo cells", "assay": "Growth of LoVo cells (total cell protein, cell number, DNA synthesis)", "type": "cell-based, human", "conditions": "for Monolayer Protein: fusaric acid 0.5 mM", "description": "as §2, §3\nAfter 30 hours of treatment with 500 μM fusaric acid, there was a prominent decrease in cell number. DNA synthesis was completely (100%) inhibited by 24 hours. When treated with 500 μM fusaric acid, the majority of the LoVo cells acquired a rounded morphology by 48 hours.\nHowever, after 100 hours, an increase in cell number was noted after 25 additional hours."}},
  "data": [
    {"smiles": "CCCCc1ccc(C(=O)O)nc1", "note": "[fusaric acid]", "values": [
      {"measurement": "cells surviving", "setting": "MDA-468 cells; MDA-468, confluent, 500 μM fusaric acid, 48 hours", "result": 10, "unit": "%"},
      {"measurement": "viable attached cells", "setting": "MDA-468 cells; MDA-468, logarithmically growing, fusaric acid, 30 hours", "result": "less than 20%"},
      {"measurement": "cell population surviving", "setting": "MDA-468 cells; MDA-468, logarithmically growing, fusaric acid, 48 hours", "result": 0.1, "unit": "%"},
      {"measurement": "inhibition at 500 µM", "setting": "[1]; Homo sapiens, by 24 hr", "result": 100, "unit": "%"},
      {"measurement": "decrease in cell number", "setting": "[1]; within 30 hours", "result": 65, "unit": "%"},
      {"measurement": "% Survival", "setting": "LoVo cells [2]; confluent cells, 48 h", "result": 40, "unit": "%"},
      {"measurement": "% Survival", "setting": "LoVo cells [2]; logarithmic growth, 78 h", "result": 4.5, "unit": "%"},
      {"measurement": "viability at 500 µM", "setting": "KB cells [3]; Homo sapiens, logarithmically growing, 48 hours, read-out: viable cells", "result": 70, "unit": "%"},
      {"measurement": "% Survival", "setting": "KB cells [3]; confluent cells, 48 h", "result": 95, "unit": "%"},
      {"measurement": "decrease in cell viability", "setting": "colon carcinoma", "result": "approximately 60%"},
      {"measurement": "decrease in cell viability", "setting": "Prostatic adenocarcinoma", "result": "approximately 60%"},
      {"measurement": "decrease in cell viability", "setting": "skin carcinoma", "result": "approximately 60%"},
      {"measurement": "decrease in cell viability", "setting": "lung adenocarcinoma", "result": "approximately 60%"},
      {"measurement": "decrease in cell viability", "setting": "liver adenocarcinoma", "result": "approximately 60%"},
      {"measurement": "% Survival", "setting": "WI-38 cells [4]; WI-38, confluent cells, 48 h", "result": 100, "unit": "%"},
      {"measurement": "% Survival", "setting": "WI-38 cells [4]; WI-38, logarithmic growth, 78 h", "result": 26, "unit": "%"},
      {"measurement": "time to resumed growth after removal of fusaric acid", "setting": "KB cells [5]", "result": 27, "unit": "h"},
      {"measurement": "Monolayer Protein", "setting": "WI-38 cells [6]; 24 h", "result": 195, "unit": "μg/dish"},
      {"measurement": "Monolayer Protein", "setting": "WI-38 cells [6]; 48 h", "result": 275, "unit": "μg/dish"},
      {"measurement": "Monolayer Protein", "setting": "WI-38 cells [6]; 72 h", "result": 345, "unit": "μg/dish"},
      {"measurement": "time to resumed growth after removal of fusaric acid", "setting": "WI-38 cells [6]; WI-38, 30 hours in 500 μM", "result": 125, "unit": "h"},
      {"measurement": "decrease in cell number after removal of fusaric acid", "setting": "WI-38 cells [6]; WI-38, 30 hours in 500 μM, then 4 days in normal media", "result": 30, "unit": "%"},
      {"measurement": "cells surviving after removal of fusaric acid", "setting": "WI-38 cells [6]; WI-38, remaining cells after 30 hours in 500 μM", "result": "> 95", "unit": "%"},
      {"measurement": "cytotoxicity in LoVo cells", "setting": "LoVo cells [7]; 1 mM fusaric acid, by 24 hours", "result": "extensive cytotoxicity"},
      {"measurement": "inhibition at 500 µM", "setting": "LoVo cells [7]; Homo sapiens, LoVo, 24 h, read-out: inhibition of DNA synthesis", "result": 100, "unit": "%"},
      {"measurement": "decrease in cell number", "setting": "LoVo cells [7]; LoVo, 500 μM fusaric acid, within 30 hours of treatment", "result": 60, "unit": "%"},
      {"measurement": "Monolayer Protein", "setting": "LoVo cells [7]; LoVo, 24 h", "result": 135, "unit": "μg/dish"},
      {"measurement": "Monolayer Protein", "setting": "LoVo cells [7]; LoVo, 48 h", "result": 90, "unit": "μg/dish"},
      {"measurement": "Monolayer Protein", "setting": "LoVo cells [7]; LoVo, 72 h", "result": 101, "unit": "μg/dish"}
    ]}
  ]
}
